According to patent US20140045823A1 (Neurocrine Biosciences, Inc., priority 2012, published 2014):

The molecules below were run against T1, human GPR119 (Homo sapiens, UniProt Q8TDV5) (assay: AlphaScreen cAMP assay in MIN6 cells stably transfected with human GPR119). Conditions: Min-6/hGPR119 cells, 45 min at room temperature.
T1 construct: expression vector for human GPR119 cDNA (Acc. No. NP_848566); expressed in transfected cells; Min-6/hGPR119
T1 sequence (Q8TDV5 1-335): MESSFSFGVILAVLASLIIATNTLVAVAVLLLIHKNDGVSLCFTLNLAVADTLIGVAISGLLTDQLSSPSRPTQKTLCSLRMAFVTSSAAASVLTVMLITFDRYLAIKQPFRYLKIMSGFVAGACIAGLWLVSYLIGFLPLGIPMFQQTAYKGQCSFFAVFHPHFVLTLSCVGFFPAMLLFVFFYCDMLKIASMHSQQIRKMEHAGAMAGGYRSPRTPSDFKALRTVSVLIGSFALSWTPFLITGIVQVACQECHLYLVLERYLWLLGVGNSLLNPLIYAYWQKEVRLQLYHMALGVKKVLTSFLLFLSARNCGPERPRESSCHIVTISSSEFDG
Type: cell-based
How it was run: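 MIN6 cells stably expressing human GPR119, seeded 10000/well and grown 24 h, were exposed to compound in pH 7.4 buffer with 0.5 mM IBMX, 0.1% BSA and 1% DMSO for 45 min at room temperature. Intracellular cAMP then measured by AlphaScreen.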

EC50 [nM]	SMILES
295	COC[C@H]1CCCN1C(=O)c1ccc(-c2ncc(C(=O)N(C3CC3)C3CCN(C(=O)OC(C)(C)C)CC3)cn2)cc1 [Example 203, 4-(Cyclopropyl-{2-[4-(2-methoxymethyl-pyrrolidine-1-carbonyl)-phenyl]-pyrimidine-5-carbonyl}-amino)-piperidine-1-carboxylic acid tert-butyl ester]
98	CN(CC#N)C(=O)c1ccc(-c2ncc(C(=O)N(C3CC3)C3CCN(C(=O)OC(C)(C)C)CC3)cn2)cc1F [Example 132, 4-({2-[4-(Cyanomethyl-methyl-carbamoyl)-3-fluoro-phenyl]-pyrimidine-5-carbonyl}-cyclopropyl-amino)-piperidine-1-carboxylic acid tert-butyl ester]
516	COC1CCN(C(=O)c2ccc(-c3ncc(C(=O)N(C4CC4)C4CCN(C(=O)OC(C)(C)C)CC4)cn3)c(F)c2)CC1 [Example 133, 4-(Cyclopropyl-{2-[2-fluoro-4-(4-methoxy-piperidine-1-carbonyl)-phenyl]-pyrimidine-5-carbonyl}-amino)-piperidine-1-carboxylic acid tert-butyl ester]
448	CC(C)(C)OC(=O)N1CCC(N(C(=O)c2cnc(-c3ccc(C(=O)N4CCOCC4)c(F)c3)nc2)C2CC2)CC1 [Example 155, 4-(Cyclopropyl-{2-[3-fluoro-4-(morpholine-4-carbonyl)-phenyl]-pyrimidine-5-carbonyl}-amino)-piperidine-1-carboxylic acid tert-butyl ester]
229	Cc1cnn(-c2ncc(C(=O)N(C3CC3)C3CCN(C(=O)OC(C)(C)C)CC3)cn2)c1 [Example 95, 4-{Cyclopropyl-[2-(4-methyl-pyrazol-1-yl)-pyrimidine-5-carbonyl]-amino}-piperidine-1-carboxylic acid tert-butyl ester]
226	COCC(C)N(C)C(=O)c1ccc(-c2ncc(C(=O)N(C3CC3)C3CCN(C(=O)OC(C)(C)C)CC3)cn2)cc1 (stereo not drawn) [Example 172, 4-[Cyclopropyl-(2-{4-[(2-methoxy-1-methyl-ethyl)-methyl-carbamoyl]-phenyl}-pyrimidine-5-carbonyl)-amino]-piperidine-1-carboxylic acid tert-butyl ester]
209	CN(C)c1ccc(-c2ncc(C(=O)N(C3CC3)C3CCN(C(=O)OC(C)(C)C)CC3)cn2)cn1 [Example 93, 4-{Cyclopropyl-[2-(6-dimethylamino-pyridin-3-yl)-pyrimidine-5-carbonyl]-amino}-piperidine-1-carboxylic acid tert-butyl ester]
636	CC(C)(C)OC(=O)N1CCC(N(C(=O)c2ncc(-c3ccc(C#N)c(F)c3)cn2)C2CC2)CC1 [Example 66, 4-{[5-(4-Cyano-3-fluoro-phenyl)-pyrimidine-2-carbonyl]-cyclopropyl-amino}-piperidine-1-carboxylic acid tert-butyl ester]
123	CC(C)(C)OC(=O)N1CCC(N(C(=O)c2cnc(-c3ccc(C(=O)NCc4cocn4)c(F)c3)nc2)C2CC2)CC1 [Example 151, 4-[Cyclopropyl-(2-{3-fluoro-4-[(oxazol-4-ylmethyl)-carbamoyl]-phenyl}-pyrimidine-5-carbonyl)-amino]-piperidine-1-carboxylic acid tert-butyl ester]
1000	CC(C)(C)OC(=O)N1CCC(N(C(=O)c2cnc(-c3ccc(C(=O)NC4CCOCC4)cc3F)nc2)C2CC2)CC1 [Example 145, 4-(Cyclopropyl-{2-[2-fluoro-4-(tetrahydro-pyran-4-ylcarbamoyl)-phenyl]-pyrimidine-5-carbonyl}-amino)-piperidine-1-carboxylic acid tert-buyl ester]
434	CC(C)(C)OC(=O)N1CCC(N(C(=O)c2cnc(-c3ccc(CC(=O)NC[C@H]4CCCC[C@H]4O)cc3)nc2)C2CC2)CC1 [Example 189]
192	Cc1ccn(-c2ncc(C(=O)N(C3CC3)C3CCN(C(=O)OC(C)(C)C)CC3)cn2)n1 [Example 96, 4-{Cyclopropyl-[2-(3-methyl-pyrazol-1-yl)-pyrimidine-5-carbonyl]-amino}-piperidine-1-carboxylic acid tert-butyl ester]
445	CC(C)(C)OC(=O)N1CCC(N(C(=O)c2cnc(-c3ccc(C(=O)Nc4ccc(O)cc4)c(F)c3)nc2)C2CC2)CC1 [Example 116, 4-(Cyclopropyl-{2-[3-fluoro-4-(4-hydroxy-phenylcarbamoyl)-phenyl]-pyrimidine-5-carbonyl}-amino)-piperidine-1-carboxylic acid tert-butyl ester]
349	CC(C)(C)OC(=O)N1CCC(N(C(=O)c2cnc(-c3ccc(S(N)(=O)=O)cc3)nc2)C2CC2)CC1 [Example 88, 4-{Cyclopropyl-[2-(4-sulfamoyl-phenyl)-pyrimidine-5-carbonyl]-amino}-piperidine-1-carboxylic acid tert-butyl ester]
213	CC(C)OC(=O)N1CCC(N(C(=O)c2ccc(-c3ccc(S(C)(=O)=O)cc3)nc2)C2CC2)CC1 [Example 2, 4-{Cyclopropyl-[6-(4-methanesulfonyl-phenyl)-pyridine-3-carbonyl]-amino}-piperidine-1-carboxylic acid isopropyl ester]
424	COC1CN(C(=O)Cc2ccc(-c3ncc(C(=O)N(C4CC4)C4CCN(C(=O)OC(C)(C)C)CC4)cn3)cc2)C1 [Example 216, 4-[Cyclopropyl-(2-{4-[2-(3-methoxy-azetidin-1-yl)-2-oxo-ethyl]-phenyl}-pyrimidine-5-carbonyl)-amino]-piperidine-1-carboxylic acid tert-butyl ester]
114	COC(C)CN(C)C(=O)c1ccc(-c2ncc(C(=O)N(C3CC3)C3CCN(C(=O)OC(C)(C)C)CC3)cn2)cc1F (stereo not drawn) [Example 107, 4-[Cyclopropyl-(2-{3-fluoro-4-[(2-methoxy-propyl)-methyl-carbamoyl]-phenyl}-pyrimidine-5-carbonyl)-amino]-piperidine-1-carboxylic acid tert-butyl ester]
136	CC(C)(C)OC(=O)N1CCC(N(C(=O)c2cnc(-c3ccc(C#N)cc3)o2)C2CC2)CC1 [Example 35, 4-{[2-(4-Cyano-phenyl)-oxazole-5-carbonyl]-cyclopropyl-amino}-piperidine-1-carboxylic acid tert-butyl ester]
181	CC(C)(C)OC(=O)N1CCC(N(C(=O)c2cnc(-c3ccc(C(=O)Nc4ccn[nH]4)cc3)nc2)C2CC2)CC1 [Example 208, 4-(Cyclopropyl-{2-[4-(2H-pyrazol-3-ylcarbamoyl)-phenyl]-pyrimidine-5-carbonyl}-amino)-piperidine-1-carboxylic acid tert-butyl ester]
82	CC(C)(C)OC(=O)N1CCC(N(C(=O)c2ccc(-c3ccc(S(C)(=O)=O)cc3)nc2)C2CC2)CC1 [Example 1, 4-{Cyclopropyl-[6-(4-methanesulfonyl-phenyl)-pyridine-3-carbonyl]-amino}-piperidine-1-carboxylic acid tert-butyl ester]
715	COCC(C)NC(=O)Cc1ccc(-c2ncc(C(=O)N(C3CC3)C3CCN(C(=O)OC(C)(C)C)CC3)cn2)cc1 (stereo not drawn) [Example 198, 4-[Cyclopropyl-(2-{4-[(2-methoxy-1-methyl-ethylcarbamoyl)-methyl]-phenyl}-pyrimidine-5-carbonyl)-amino]-piperidine-1-carboxylic acid tert-butyl ester]
322	CC(C)(C)OC(=O)N1CCC(N(C(=O)c2cnc(-c3ccc(C(=O)N4CCC[C@@H]4C#N)cc3)nc2)C2CC2)CC1 [Example 245, 4-({2-[4-(2-Cyano-pyrrolidine-1-carbonyl)-phenyl]-pyrimidine-5-carbonyl}-cyclopropyl-amino)-piperidine-1-carboxylic acid tert-butyl ester]
238	CC(O)c1cccc(NC(=O)c2ccc(-c3ncc(C(=O)N(C4CC4)C4CCN(C(=O)OC(C)(C)C)CC4)cn3)cc2F)c1 (stereo not drawn) [Example 150, 4-[Cyclopropyl-(2-{3-fluoro-4-[3-(1-hydroxy-ethyl)-phenylcarbamoyl]-phenyl}-pyrimidine-5-carbonyl)-amino]-piperidine-1-carboxylic acid tert-butyl ester]
151	CNS(=O)(=O)c1ccc(-c2ncc(C(=O)N(C3CC3)C3CCN(C(=O)OC(C)(C)C)CC3)cn2)cc1 [Example 92, 4-{Cyclopropyl-[2-(4-methanesulfamoyl-phenyl)-pyrimidine-5-carbonyl]-amino}-piperidine-1-carboxylic acid tert-butyl ester]
297	CN(CCC#N)C(=O)c1ccc(-c2ncc(C(=O)N(C3CC3)C3CCN(C(=O)OC(C)(C)C)CC3)cn2)cc1F [Example 234, 4-[(2-{4-[(2-Cyano-ethyl)-methyl-carbamoyl]-3-fluoro-phenyl}-pyrimidine-5-carbonyl)-cyclopropyl-amino]-piperidine-1-carboxylic acid tert-butyl ester]
449	CN(C)C(=O)CNC(=O)c1ccc(-c2ncc(C(=O)N(C3CC3)C3CCN(C(=O)OC(C)(C)C)CC3)cn2)cc1 [Example 200, 4-(Cyclopropyl-{2-[4-(dimethylcarbamoylmethyl-carbamoyl)-phenyl]-pyrimidine-5-carbonyl}-amino)-piperidine-1-carboxylic acid tert-butyl ester]
46	COc1cc(-c2ncc(C(=O)N(C3CC3)C3CCN(C(=O)OC(C)(C)C)CC3)cn2)ccn1 [Example 85, 4-{Cyclopropyl-[2-(2-methoxy-pyridin-4-yl)-pyrimidine-5-carbonyl]-amino}-piperidine-1-carboxylic acid tert-butyl ester]
